Some test systems named below: SW-620 colon; HCC-2998 colon; NCI-H460 lung; PC-3 prostate; U251 CNS; NCI-H522 lung; SF-268 CNS; MCF7 breast; HL-60(TB) leukemia; OVCAR-8 ovarian.
Assay in all cases: growth of human tumour cells (NCI), 48 h

From PubChem BioAssay (NCI) come the findings set out here.

“And” between values parts separate entries of the source, which are not always exact repeats. Identical values can stand only once.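 Tested at 5 concentrations; 48 h exposure; 96-well plates; endpoints linearly interpolated, else capped at highest concentration. GI50 = concentration required for 50% inhibition of growth. TGI is the concentration that stops growth completely.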 Bounds are passed on as bounds.

For the molecule `C[N+](C)(C)CC1CCCc2ccccc2C1=O` (configuration not stated), the TGI was 3.67 µM and 3.92 µM in the assay on SW-620 colon; 45 µM in the assay on HCC-2998 colon; 49.4 µM with NCI-H460 lung; 30.8 µM with PC-3 prostate; 12.4 µM in the assay with U251 CNS; 3.23 µM and 2.36 µM in the assay with NCI-H522 lung. Further, the TGI was 53.9 µM with SF-268 CNS; 5.29 µM and 2.23 µM in the assay with MCF7 breast; 5.13 µM and 3.01 µM in the assay on HL-60(TB) leukemia; 12.4 µM with OVCAR-8 ovarian. Further, the GI50 in the assay with NCI-H522 lung is 0.861 µM; in the assay on MCF7 breast, 0.511 µM; with HL-60(TB) leukemia it was 1.16 µM; in the assay with OVCAR-8 ovarian, 6.14 µM.

Consider `O=C(O)COc1ccc2c(=O)c3sc4c(=O)c5ccccc5c(=O)c4c3c(=O)c2c1`, for which the GI50 with SW-620 colon was 11.4 µM; in the assay with HCC-2998 colon, 11.2 µM; in the assay with NCI-H460 lung, 3.51 µM; in the assay on PC-3 prostate, 26.8 µM; with U251 CNS, 13.7 µM; in the assay on NCI-H522 lung it was 19.3 µM. Also, the GI50 in the assay on SF-268 CNS is 14.8 µM; in the assay on MCF7 breast, 5.51 µM; in the assay with HL-60(TB) leukemia, 24.1 µM; in the assay with OVCAR-8 ovarian, 24.8 µM. Also, the TGI in the assay on SW-620 colon was 28.6 µM; in the assay with HCC-2998 colon, 26.7 µM; with NCI-H460 lung, 10.4 µM; in the assay with PC-3 prostate, greater than 100 µM; in the assay with U251 CNS, 32.8 µM; in the assay on NCI-H522 lung it was 53.4 µM. For the same molecule, the TGI in the assay on SF-268 CNS is 48.9 µM; in the assay with MCF7 breast, 25.8 µM; in the assay with HL-60(TB) leukemia it was 61.3 µM; in the assay with OVCAR-8 ovarian, 73.6 µM.

Turning to `Cc1cc(Cl)cc(OCCn2cc(F)cn2)c1-c1nc(N)nc2c1CN(C(=O)NCC(C)(F)F)C2`, the GI50 with SW-620 colon was 0.043 µM; in the assay with HCC-2998 colon, 0.315 µM; in the assay on NCI-H460 lung, 0.0414 µM; with PC-3 prostate, 0.0924 µM; in the assay with U251 CNS, 0.114 µM; in the assay with NCI-H522 lung, 0.0781 µM. In addition, the GI50 in the assay on SF-268 CNS was greater than 55.4 µM; with MCF7 breast it was 0.0339 µM; with HL-60(TB) leukemia, 0.0407 µM; in the assay with OVCAR-8 ovarian, 0.0776 µM. The TGI with SW-620 colon, in the assay with HCC-2998 colon, with NCI-H460 lung, in the assay on PC-3 prostate, in the assay with U251 CNS and in the assay with NCI-H522 lung was greater than 100 µM throughout. Further, the TGI in the assay on SF-268 CNS, in the assay on MCF7 breast, in the assay on HL-60(TB) leukemia and in the assay on OVCAR-8 ovarian was greater than 100 µM throughout.

For the molecule `Cn1cc(C2=C(c3ccc(N)cc3)C(=O)NC2=O)c2ccccc21`, the GI50 with SW-620 colon is 13.7 µM; with HCC-2998 colon it was greater than 25 µM; in the assay with NCI-H460 lung, 23.3 µM; in the assay on PC-3 prostate it was 17 µM; in the assay on U251 CNS, 11.4 µM; in the assay on NCI-H522 lung it was 15.4 µM. For the same molecule, the GI50 is 20.1 µM with SF-268 CNS, 13.7 µM in the assay with MCF7 breast, 8.58 µM in the assay on HL-60(TB) leukemia and greater than 25 µM in the assay on OVCAR-8 ovarian. Also, the TGI in the assay with SW-620 colon, in the assay with HCC-2998 colon, in the assay on NCI-H460 lung, with PC-3 prostate, in the assay with U251 CNS and in the assay with NCI-H522 lung was greater than 25 µM throughout. The TGI with SF-268 CNS, with MCF7 breast, with HL-60(TB) leukemia and in the assay with OVCAR-8 ovarian was greater than 25 µM each time.

`COc1ccc(/C=C\[N+](=O)[O-])cc1OC`: the GI50 is 1.9 µM in the assay with SW-620 colon; 4.99 µM with NCI-H460 lung; 3.01 µM with PC-3 prostate; 1.5 µM with U251 CNS; 5.88 µM in the assay on SF-268 CNS; 3.05 µM in the assay with MCF7 breast. Moreover, the GI50 was 2.94 µM in the assay with HL-60(TB) leukemia and 2.84 µM in the assay with OVCAR-8 ovarian. Further, the TGI in the assay with SW-620 colon worked out at 4.9 µM; in the assay on NCI-H460 lung, 21.2 µM; in the assay on PC-3 prostate, 8.85 µM; in the assay with U251 CNS, 4.72 µM; in the assay with SF-268 CNS it was 20.5 µM; with MCF7 breast, 15.9 µM. For the same molecule, the TGI came to 7.79 µM in the assay with HL-60(TB) leukemia and 11.1 µM with OVCAR-8 ovarian.

On to `O=C(Nc1ccc(Br)cc1F)c1cc(F)ccc1O`, for which the GI50 with SW-620 colon was 0.805 µM; with HCC-2998 colon it was 2.37 µM; with NCI-H460 lung it was 0.491 µM; in the assay with PC-3 prostate, 1.15 µM; with U251 CNS, 0.609 µM; in the assay on NCI-H522 lung, 0.319 µM. Also, the GI50 is 0.558 µM in the assay on SF-268 CNS, 1.29 µM in the assay on MCF7 breast, 0.485 µM in the assay with HL-60(TB) leukemia and 1.3 µM with OVCAR-8 ovarian. The TGI with SW-620 colon is 15.4 µM; with HCC-2998 colon, 8.45 µM; in the assay on NCI-H460 lung, 9.75 µM; with PC-3 prostate, 7.24 µM; with U251 CNS, greater than 100 µM; in the assay on NCI-H522 lung, 4.47 µM. Besides, the TGI amounted to 10.1 µM in the assay with SF-268 CNS, 7.14 µM in the assay with MCF7 breast, 2.89 µM in the assay with HL-60(TB) leukemia and 15 µM in the assay on OVCAR-8 ovarian.

On to `N=C(N)C1CN(CCc2c[nH]c3ccccc23)C(=O)NC1=O` (configuration not stated), for which the TGI with SW-620 colon, with HCC-2998 colon, in the assay on NCI-H460 lung, in the assay on PC-3 prostate, in the assay on U251 CNS and in the assay with SF-268 CNS was greater than 100 µM throughout. Also, the TGI with MCF7 breast, in the assay with HL-60(TB) leukemia and in the assay on OVCAR-8 ovarian was greater than 100 µM in each case.

`O=C(Nc1ccc2ncccc2c1)Nc1ccc2ncccc2c1`: the TGI in the assay with SW-620 colon, with HCC-2998 colon, with NCI-H460 lung, in the assay with PC-3 prostate, in the assay on U251 CNS and with NCI-H522 lung was greater than 100 µM in each case. Also, the TGI with SF-268 CNS, with MCF7 breast and with OVCAR-8 ovarian was greater than 100 µM each time.

Regarding `C(=NCCN1CCOCC1)=NC1CCCCC1`, the TGI in the assay on SW-620 colon, with NCI-H460 lung, with PC-3 prostate, in the assay on U251 CNS, in the assay with NCI-H522 lung and in the assay with SF-268 CNS was greater than 100 µM in each case. Also, the TGI with MCF7 breast and in the assay with OVCAR-8 ovarian was greater than 100 µM each time.

Regarding `O=C(O)c1nnsc1-c1ccc(-c2snnc2C(=O)O)cc1`, the TGI with SW-620 colon, with NCI-H460 lung, in the assay on PC-3 prostate, with U251 CNS, in the assay on NCI-H522 lung and with SF-268 CNS was greater than 100 µM each time. The TGI with MCF7 breast, in the assay on HL-60(TB) leukemia and in the assay on OVCAR-8 ovarian was greater than 100 µM throughout.

On to `CC(=O)OC1COC(Oc2c(C)c3c4c(c2O)[C@@H](C)CC[C@@H]4[C@@H](C)C[C@H]3C=C(C)C)C(O)C1OC(C)=O` (some centres not stated), for which the GI50 in the assay on SW-620 colon was 36.4 µM; in the assay on HCC-2998 colon, 2.3 µM; with NCI-H460 lung it was 8.36 µM; in the assay with PC-3 prostate, 11.3 µM; with U251 CNS, 10.4 µM; with NCI-H522 lung it was 17.6 µM. The values for the GI50 in the assay with SF-268 CNS, in the assay with MCF7 breast and in the assay with OVCAR-8 ovarian were 27.6 µM, 17.5 µM and 16 µM, respectively. The TGI is greater than 100 µM with SW-620 colon; 8.84 µM with HCC-2998 colon; greater than 100 µM with NCI-H460 lung; 25.2 µM in the assay with PC-3 prostate; 22.5 µM with U251 CNS; 35 µM in the assay with NCI-H522 lung. Besides, the TGI was greater than 100 µM in the assay with SF-268 CNS, greater than 100 µM in the assay on MCF7 breast and 32.9 µM in the assay on OVCAR-8 ovarian.

Take `CNCc1ccccc1-c1csc([C@@H](C)Nc2nc(C)nc3cc(OC)c(OC)cc23)c1`: the GI50 in the assay with SW-620 colon is 1.49 µM; in the assay with HCC-2998 colon, 1.43 µM; with NCI-H460 lung, 2.03 µM; in the assay on PC-3 prostate, 4.01 µM; in the assay on U251 CNS it was 1.48 µM; in the assay on NCI-H522 lung it was 1.54 µM. The GI50 in the assay with SF-268 CNS was 2.66 µM; in the assay on MCF7 breast it was 1.44 µM; in the assay on OVCAR-8 ovarian, 2.29 µM. Further, the TGI with SW-620 colon came to 3.44 µM; in the assay on HCC-2998 colon it was 2.9 µM; with NCI-H460 lung, 4.16 µM; in the assay on PC-3 prostate, 12.3 µM; in the assay on U251 CNS, 3 µM; with NCI-H522 lung it was 3.64 µM. Further, the results for the TGI in the assay on SF-268 CNS, in the assay with MCF7 breast and in the assay with OVCAR-8 ovarian were 12.4 µM, 3.19 µM and 7.65 µM, respectively.

With `S=C(Nc1ccc(Cl)cc1)Nc1ccc(-c2nc3ccccc3s2)cc1`, the GI50 in the assay with SW-620 colon is 17.9 µM; in the assay on HCC-2998 colon, 14.7 µM; in the assay on NCI-H460 lung, 13.9 µM; in the assay with PC-3 prostate, 14.3 µM; in the assay on U251 CNS, 19 µM; in the assay on NCI-H522 lung, 5.61 µM. For the same molecule, the GI50 is 13.8 µM in the assay on SF-268 CNS, 8.22 µM in the assay on HL-60(TB) leukemia and 17.9 µM in the assay with OVCAR-8 ovarian. The TGI was 35.4 µM with SW-620 colon; 27.8 µM in the assay on HCC-2998 colon; 33.4 µM with NCI-H460 lung; 54.9 µM in the assay on PC-3 prostate; greater than 100 µM with U251 CNS; 19.6 µM in the assay with NCI-H522 lung. In addition, the TGI is 32 µM in the assay with SF-268 CNS, greater than 100 µM with HL-60(TB) leukemia and 41.7 µM in the assay with OVCAR-8 ovarian.

Take `NC(=S)N/N=C/C(=O)O`: the GI50 with SW-620 colon is greater than 100 µM; in the assay with NCI-H460 lung, greater than 100 µM; in the assay on PC-3 prostate, 67.7 µM; in the assay with U251 CNS, greater than 100 µM; in the assay with NCI-H522 lung, greater than 100 µM; with SF-268 CNS, greater than 100 µM. In addition, the GI50 is 5.58 µM in the assay with MCF7 breast, greater than 100 µM in the assay with HL-60(TB) leukemia and greater than 100 µM with OVCAR-8 ovarian. In addition, the TGI in the assay on SW-620 colon, in the assay on NCI-H460 lung, with PC-3 prostate, with U251 CNS, in the assay with NCI-H522 lung and in the assay on SF-268 CNS was greater than 100 µM in each case. Moreover, the TGI with MCF7 breast, with HL-60(TB) leukemia and in the assay with OVCAR-8 ovarian was greater than 100 µM each time.
